Values after ≈ are worked out from the molar mass of the structure shown.
Details: buffer; pH 7.4; 6.0 h; 150.0 µM

| Compound | solubility kinetic [µg/mL] |
| --- | --- |
| C[C@@H](O)CNC(C)(C)CC(=O)N[C@@H]1CCc2ccccc2N(Cc2ccc(-c3ccccc3-c3nn[nH]n3)cc2)C1=O | > 84 |
| CCOc1ccc(CCNC(=O)c2ccnn2Cc2ccccn2)cc1OCC | > 58 |
| COCCCNC(=O)c1cc2cc(S(=O)(=O)N(C)C)ccc2n1C | 42.6 (≈ 120 µM) |
| O=C(O)C1CCN(c2ncc(-c3ccc4c(c3)OCCCO4)s2)CC1 | > 53 |
| CC(=O)c1c(C)[nH]c(C(=O)Nc2cccc(S(=O)(=O)N3CCOCC3)c2)c1C | > 60 |
| COc1ccc(-c2csc(CCn3nc(C)c4c(C(F)(F)F)cc(=O)[nH]c43)n2)cc1 | < 1 |
| COc1ccc(-c2csc(N3CCC(C(N)=O)CC3)n2)cc1 | > 47 |
| CCOC(=O)C1CCN(C(=O)C(C)(C)NC(=O)Nc2ccc(-c3ccccc3)cc2)CC1 | 10.8 (≈ 24.6 µM) |
| Cc1ccc(S(=O)(=O)Nc2cnccc2C(=O)Nc2nc(-c3ccc(F)cc3)cs2)cc1 | < 1 |
| CCN(CC)CCNC(=O)C1CCN(c2nn3cc(-c4ccc(F)cc4)nc3s2)CC1 | > 66 |
| Cc1cnc(-c2ccccc2C(F)F)nc1NCc1ccc(-c2cccnc2)cc1 | 1.07 (≈ 2.66 µM) |
| CC(=O)C1CCN(c2ncc(-c3cccc(N(C)C)c3)s2)CC1 | 3.33 (≈ 10.1 µM) |
| O=S(=O)(c1ccccc1)N1CCCCC1CCc1ccccc1 (centres undefined) | 4.39 (≈ 13.3 µM) |
| Cc1cc(-c2nnc3n2CCCCC3)c(C)n1-c1cccnc1 | 32.5 (≈ 106 µM) |
| Cc1nc(-c2ccccc2)cc([C@H]2CN3CC[C@H]2C[C@@H]3CNC2CCOCC2)n1 | > 58 |
| O=C(Cc1ccc(Cl)c(Cl)c1)Nc1ccc(S(=O)(=O)Nc2ccccc2)cc1 | < 1 |
| NC(=O)C1CCN(c2nc(-c3cccc(C(F)(F)F)c3)cs2)CC1 | 2.41 (≈ 6.78 µM) |
| Cc1ccc(OCCn2c(CCNC(=O)C3CCCCC3)nc3ccccc32)cc1 | < 1 |
| O=C(NC1CCCc2c1cnn2-c1ccc(O)cc1)c1ccccn1 (centres undefined) | 40.8 (≈ 122 µM) |
| C[C@H]1CCC[C@H](O)CCC/C=C/c2cc(O)cc(O)c2C(=O)O1 | 17.1 (≈ 53.2 µM) |
| COc1ccc(CN2CCNc3cc(Nc4ccccc4)ncc3C2)cc1O | > 83 |
| O=C1Nc2ccccc2/C1=C\c1ccc(O)c(F)c1 | 9.29 (≈ 36.4 µM) |
| COc1ccc(-n2nc(C3CCCN(C(=O)Nc4ccccc4)C3)[nH]c2=O)cc1 (centres undefined) | 34.9 (≈ 88.8 µM) |
| COc1ccc(-n2c(C)cc(C3=NNC(=NC4CC4)SC3)c2C)cc1 | 14 (≈ 39.5 µM) |
| COc1cc(-c2nc(-c3ccccc3)c(-c3cccs3)[nH]2)cc(OC)c1O | < 1 |

| Compound | solubility kinetic [µg/mL] |
| --- | --- |
| CC(=O)c1c(C)c(C(=O)Nc2cccc([S+](=O)([O-])N(C)C)c2)n(C)c1C | 33.2 (≈ 88 µM) |
| O=C(CCCN1CCC(n2c(=O)[nH]c3ccccc32)CC1)c1ccc(F)cc1 | 33.3 (≈ 87.2 µM) |
| NS(=O)(=O)c1ccc(NC(=O)c2cc3ncccn3n2)cc1 | 5.17 (≈ 16.3 µM) |
| CNC(=O)c1ccc(-c2cnc3cnc(C(=O)N(C)c4ccc(Cl)cc4)cn23)cc1 | > 62 |
| Cn1ccc2c(C(=O)NCc3cccnc3)nc(-c3ccc(CO)cc3)cc21 | > 82 |
| Cc1cc(-c2nc(Nc3ccc(F)c(F)c3)c3ccccc3n2)ccn1 | < 1 |
| CC1CCc2cc(F)ccc2N1C(=O)CSc1nnc2c(n1)[nH]c1ccccc12 (centres undefined) | < 1 |
| Cc1csc2nc(-c3cccc(NC(=O)c4ccccc4Cl)c3)cn12 | < 1 |
| Cc1ccc(-c2nc(C)c(C(=O)Nc3ccc4c(c3)C(=O)N3CCC[C@H]3C(=O)N4)s2)cc1 | 4.88 (≈ 10.9 µM) |
| O=c1[nH]c(C2CCN(S(=O)(=O)c3ccc4c(c3)OCCO4)CC2)nc2c1nnn2Cc1c(F)cccc1Cl | < 1 |
| COc1ncc(-c2ccc3c(Nc4cc(Oc5cc(F)cc(F)c5)cc(C(=O)O)c4)c(S(=O)(=O)NC4CC4)cnc3c2)c(OC)n1 | 21.5 (≈ 33.1 µM) |
| O=C(Nc1nnc(-c2cccs2)o1)c1ccc(Cl)cc1 | 6.09 (≈ 19.9 µM) |
| O=C(NC1CC1)c1nc(-c2cccnc2)c2ccccn12 | > 62 |
| COc1nccc(-c2nc(Nc3ccc(F)c(F)c3)c3ccccc3n2)c1OC | < 1 |
| O=C(c1ccccc1)N1CCN(c2nc(-c3ccc(Br)cc3)cs2)CC1 | < 1 |
| CCN(CC)S(=O)(=O)c1cccc(C(=O)Nc2ccc(C#N)cc2)c1 | 10.2 (≈ 28.5 µM) |
| CN(C)c1ccc2cc(C(=O)N[C@@H](CCCN=C(N)CCl)C(=O)NCc3ccccc3)ccc2c1 | 52.4 (≈ 106 µM) |
| N#Cc1ccc(C(=O)Nc2ccc(Cl)c(-c3nc4cc(Cl)ccc4o3)c2)c(F)c1 | < 1 |
| O=C(O)c1cnc(-c2ccc(F)cc2)nc1-c1ccncc1 | > 29 |
| Fc1cnc(-c2ccccc2C(F)F)nc1NCc1ccc(-c2cccnc2)cc1 | < 1 |
| Fc1cccc(CN2CCNc3cc(Nc4ccccc4)ncc3C2)c1 | 27.3 (≈ 78.3 µM) |
| CN1CCN(c2ccc(Nc3nc(-c4ccncc4)nc4ccccc34)cc2F)CC1 | 18.7 (≈ 45.1 µM) |
| COc1ccc(C(=O)NC2CCN(c3cnn(CC4CC4)c(=O)c3)CC2)cc1 | 8.61 (≈ 22.5 µM) |
| O=C(NCc1cccnc1)c1nc(-c2ccc(Cl)nc2)c2cnccn12 | 4.69 (≈ 12.9 µM) |
| CC1(C)CNc2cc(NC(=O)c3cccnc3NCc3ccncc3)ccc21 | 41.8 (≈ 112 µM) |

| Compound | solubility kinetic [µg/mL] |
| --- | --- |
| Cc1ccccc1C(=O)N1CCc2cc(-c3nc(NC(=O)Cc4ccc5c(c4)OCO5)sc3C)ccc21 | < 1 |
| COc1ccc(S(=O)(=O)N2CCOCC2)cc1NC(=O)c1cccc(-n2cccc2)c1 | 6.13 (≈ 13.9 µM) |
| COc1ccc(-c2nc3sc(CCNC(=O)C(C)(C)C)c(C)n3n2)cc1 | > 55 |
| CCOc1ccc(CCNC(=O)c2cccc(C(=O)c3ccccc3)c2)cc1OCC | 3.12 (≈ 7.47 µM) |
| Cc1ccc(S(=O)(=O)Nc2ccccc2C(=O)Nc2ccc(-c3ccccc3)nn2)cc1 | < 1 |
| Cc1ccc(C(=O)Nc2nc3nc(-c4ccccc4)cc(=O)n3[nH]2)cc1 | 2.64 (≈ 7.65 µM) |
| C/C=C1/CN2CC[C@@]34c5ccccc5N(C)[C@@H]3[C@@H]2C[C@@H]1[C@H]4C(=O)OC | > 33 |
| Cc1cc(-c2cc3c(nc2-c2ccccc2)nc(C(=O)NCCN(C)C)n3C)ccn1 | 54.5 (≈ 132 µM) |
| Cc1cc(-c2nnc3n2CCCCC3)c(C)n1-c1ccc(F)cc1 | 35.3 (≈ 109 µM) |
| O=C(NC1CCN(c2cc(-c3ccc(Cl)cc3)[nH]n2)C1)c1ccccc1 (centres undefined) | < 1 |
| COc1ccc(C2=Nc3ccc(Br)cc3C(c3ccccc3)N2CC(=O)NN)cc1 (centres undefined) | > 69 |
| CCCCOc1ccc(C(=O)N2CCC(c3n[nH]c(=O)n3-c3ccc(C)cc3)CC2)cc1 | < 1 |
| Cc1ccc(CN2CCOC[C@H]2c2ncc(-c3cccc(F)c3)[nH]2)cc1 | 10.4 (≈ 29.7 µM) |
| CCOc1ccc(CN2C(=O)c3ccccc3Sc3ccc(C(=O)NC4CCC(C)CC4)cc32)cc1 (centres undefined) | 6.78 (≈ 13.5 µM) |
| CCOC(=O)C1CCN(C(=O)C2(NC(=O)Nc3ccc(F)cc3F)CCCCC2)CC1 | 41.8 (≈ 95.6 µM) |
| O=C(Nc1cn[nH]c1-c1nc2ccc(CN3CCOCC3)cc2[nH]1)NC1CC1 | > 38 |
| CNc1oc(-c2ccccc2-c2ccccc2)nc1C#N | 1.21 (≈ 4.39 µM) |
| CN(C(=O)c1cn2c(-c3ccc(C(F)(F)F)cc3)cnc2cn1)c1ccc(C#N)cc1 | 3.56 (≈ 8.46 µM) |
| Cc1cc(C)cc(C(=O)Nc2ccc3c(N4CCCC4)ncnc3c2)c1 | < 1 |
| Cc1cccc(NCc2ccc(O)c3ncccc23)c1 | < 1 |
| CC(=O)c1c(C)[nH]c(C(=O)Nc2cccc(S(=O)(=O)N3CCCCCC3)c2)c1C | 2.11 (≈ 5.05 µM) |
| COC(=O)CNC(=O)c1nc(-c2ccc(F)cc2)c2ccccn12 | < 1 |
| O=C1CCCC2=C1C(c1[nH]ncc1Cl)N=C(Nc1nc3cccc(Cl)c3o1)N2 (centres undefined) | < 1 |
| Cc1nsc(N)c1C(=O)N(C)CCOc1ccccc1Cl | > 48 |
| COc1ccc2c(c1)CN(C(=O)CCN1CCC(Cc3ccccc3)CC1)CCS2 | > 63 |

| Compound | solubility kinetic [µg/mL] |
| --- | --- |
| Cc1ccc(S(=O)(=O)n2cc(C(=O)Nc3ccc(-c4ccccc4)cc3)c3ccccc32)cc1 | < 1 |
| O=C(Nc1ncc(Cc2ccccc2)s1)c1ccc(-c2cccc([N+](=O)[O-])c2)o1 | < 1 |
| O=C(Nc1ccc([S+](=O)([O-])Nc2nccs2)cc1)c1ncn[nH]1 | > 52 |
| Fc1ccc(-c2ccc(Nc3nc(-c4ccncc4)nc4ccccc34)cc2F)cc1 | < 1 |
| Cc1ccc(S(=O)(=O)Nc2ccccc2C(=O)Nc2ncc(-c3ccccc3)s2)cc1 | < 1 |
| O=C1CCC(CNC(=O)c2nc(-c3ccccc3)cc3[nH]ccc23)N1 (centres undefined) | > 74 |
| Cc1ccc(S(=O)(=O)Nc2cc(C(=O)Nc3nc(-c4ccccc4)cs3)ccc2Cl)cc1 | < 1 |
| OCc1ccc(-c2ccc(-c3ccc(CO)s3)o2)s1 | > 43 |
| Cc1ccc(S(=O)(=O)Nc2cnccc2C(=O)Nc2nc3ccccc3s2)cc1 | > 63 |
| N#Cc1ccccc1Nc1ncc(-c2cccc3ccccc23)o1 | < 1 |
| Cc1ccc2oc(NC3=NC4(CCCC4)C4=C(CCCC4=O)N3)nc2c1 | < 1 |
| COc1cc(C(=O)N2CCN(c3cc(Cl)ccc3Cl)CC2)cc(OC)c1OC | < 1 |
| C=Cc1ccc(Cn2c(C(=O)O)c(CNC3CCCCC3)c3ccc(OC)cc32)cc1 | < 1 |
| CN(Cc1ccccc1)C(=O)c1ccc(S(=O)(=O)Nc2ccccc2)cc1 | 22.5 (≈ 59.2 µM) |
| O=C(Nc1ccc(-c2nc3cc(NC(=O)c4ccccc4Cl)ccc3o2)cc1)c1ccccc1Cl | < 1 |
| NC(=O)C1CCN(c2nc(-c3cccc4ccccc34)cs2)CC1 | 38.3 (≈ 114 µM) |
| CCOc1ccc(OCC)c(NC(=O)C(NS(=O)(=O)c2ccc(Br)s2)c2ccccc2)c1 (centres undefined) | < 1 |
| CCOc1ccccc1C(=O)Nc1cccnc1C(=O)Nc1cccc(S(=O)(=O)C(F)(F)F)c1 | < 1 |
| Cc1ccc(S(=O)(=O)Nc2ccccc2C(=O)Nc2ncc(-c3ccccc3)o2)cc1 | < 1 |
| CC(=O)c1c(C)[nH]c(C(=O)Nc2cccc([S+](=O)([O-])Nc3ccc(C#N)cc3)c2)c1C | 36.8 (≈ 84.3 µM) |
| CC1=Nc2cc(C(=O)NCc3ccccc3Cl)ccc2Sc2c(C)ccc(C)c21 | < 1 |
| Cc1ccc(S(=O)(=O)Nc2cnccc2C(=O)Nc2ccc(-n3cncn3)cc2)cc1 | > 64 |
| Cc1cccc(S(=O)(=O)c2cn(Cc3ccccc3)c3cc(N4CCCC(C)C4)c(F)cc3c2=O)c1 (centres undefined) | < 1 |
| COc1ccc(S(=O)(=O)N(C(=O)C(C)C)c2ccc3oc(=O)sc3c2)cc1 | 8.8 (≈ 21.6 µM) |

From PubChem BioAssay AID1645848
